According to patent publication US20040106626A1, “6-Membered unsaturated heterocyclic compounds useful for selective inhibition of the coagulation cascade” (Pharmacia Corporation, priority 2001, published 2004):

Assays:
Assay type in all cases: biochemical
[1] = target: T1, recombinant soluble tissue factor and recombinant human factor VIIa (TF-VIIa) (Homo sapiens, UniProt P08709); assay: TF-VIIa assay (chromogenic substrate hydrolysis); details: reported only as less than or greater than 0.1 uM
T1 construct: conversion of coagulation factor VII to VIIa by factor Xa; purchased American Diagnostica, Greenwich CT; host or cells: soluble TF made in house in E. coli
Summary of the method: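 Chromogenic read at OD405, compared with control for percent inhibition. Substrate N-methylsulfonyl-D-phe-gly-arg-p-nitroaniline at 0.4 mM is cleaved by recombinant human VIIa (2 nM) complexed with soluble TF (100 nM). Buffer: pH 8.0 Tris-HCl 50 mM, CaCl2 5 mM, NaCl 100 mM, BSA 0.1%.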

Human thrombin = target: T2, Human thrombin (Homo sapiens, UniProt P00734); assay: Thrombin assay (chromogenic substrate); details: reported only as less than or greater than 30 uM; read-out: Thrombin (II) IC50
T2 construct: converts prothrombin (II) to thrombin (IIa); purchased Calbiochem, La Jolla, Calif
Summary of the method: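 Percent inhibition derived by comparing OD405 nm of compound-treated and control samples. Thrombin cleavage of a p-nitroanilide chromogenic substrate provides the signal.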

Human factor Xa = target: T3, Human factor Xa (Homo sapiens, UniProt P00742); assay: Xa assay (chromogenic substrate S-2765); details: reported only as less than or greater than 30 uM; read-out: Factor Xa (II) IC50
T3 construct: purchased Enzyme Research Laboratories, South Bend Ind
Summary of the method: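 Chromogenic readout: S-2765 hydrolysis (0.15 mM) by 0.3 nM human FXa was monitored at 405 nm after 60 min at room temperature, with a time-zero background read. Buffer: 50 mM Tris-HCl, pH 8.0, 100 mM NaCl, 0.1% BSA. Inhibition is relative to buffer-only controls.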

[2] = system: Normal human pooled plasma; assay: Prothrombin time (PT) clotting assay; details: concentration at which prothrombin time is prolonged by 2x normal, reported as less than or greater than 50 uM
Description: The prothrombin time (PT) assay is a clotting assay that is used to determine deficiencies of clotting factor activity in the extrinsic pathway. The assay measures time to clotting after the addition of thromboplastin (human tissue factor). Normal human pooled plasma is incubated with 100 uM compound or saline in a coagulation machine. Thromboplastin is added and time to clotting is measured. Compounds with greater than 3×normal PT of 11.0 seconds are further analyzed by concentration response to determine at what concentration the prothrombin time is prolonged by 2×normal.

T3 sequence (P00742 235-488 limits assumed): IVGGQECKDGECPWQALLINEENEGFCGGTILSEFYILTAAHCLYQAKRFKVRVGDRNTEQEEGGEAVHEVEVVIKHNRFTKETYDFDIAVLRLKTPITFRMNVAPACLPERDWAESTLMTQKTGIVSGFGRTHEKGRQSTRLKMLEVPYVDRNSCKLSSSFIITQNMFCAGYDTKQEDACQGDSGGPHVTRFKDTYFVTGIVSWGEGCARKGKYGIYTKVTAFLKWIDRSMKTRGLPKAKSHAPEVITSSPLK
T3 sequence (P00742 41-179 limits assumed): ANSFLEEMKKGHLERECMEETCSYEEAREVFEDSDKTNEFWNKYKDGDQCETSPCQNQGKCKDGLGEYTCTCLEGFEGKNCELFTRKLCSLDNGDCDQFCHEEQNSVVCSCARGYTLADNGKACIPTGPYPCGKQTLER
T1 sequence (P08709 213-466 limits assumed): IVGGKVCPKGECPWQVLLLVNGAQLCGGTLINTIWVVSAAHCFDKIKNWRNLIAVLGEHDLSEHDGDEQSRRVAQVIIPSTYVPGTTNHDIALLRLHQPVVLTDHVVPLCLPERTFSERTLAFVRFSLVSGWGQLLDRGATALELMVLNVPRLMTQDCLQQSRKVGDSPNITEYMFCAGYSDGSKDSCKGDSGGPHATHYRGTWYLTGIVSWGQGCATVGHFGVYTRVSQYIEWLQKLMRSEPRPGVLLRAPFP
T1 sequence (P08709 61-212 limits assumed): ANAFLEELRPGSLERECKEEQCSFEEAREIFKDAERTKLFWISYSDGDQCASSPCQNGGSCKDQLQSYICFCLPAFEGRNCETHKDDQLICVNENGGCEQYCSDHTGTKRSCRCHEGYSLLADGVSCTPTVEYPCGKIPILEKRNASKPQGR
T1 sequence (P13726 33-251 partner limits assumed): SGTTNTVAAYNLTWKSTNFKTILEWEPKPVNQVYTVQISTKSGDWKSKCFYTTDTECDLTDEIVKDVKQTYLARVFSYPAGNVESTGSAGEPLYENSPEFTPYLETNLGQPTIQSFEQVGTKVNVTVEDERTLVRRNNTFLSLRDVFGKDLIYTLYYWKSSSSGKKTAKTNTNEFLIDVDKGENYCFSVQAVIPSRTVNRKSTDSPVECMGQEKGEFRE

SMILES	IC50 [1] [µM]	IC50 (Human thrombin) [µM]	IC50 (Human factor Xa) [µM]	PT (Prothrombin time) 2xPT [2] [µM]
CC(C)COc1cc(N)cc(-c2cnc(NC(C)C)c(=O)n2CC(=O)NCc2ccc(C(=N)N)cc2)c1 [Example 64, N-{4-[amino(imino)methyl]benzyl}-2-[6-(3-amino-5-isobutoxyphenyl)-3-(isopropylamino)-2-oxopyrazin-1 (2H)-yl]acetamide]	< 0.1	> 30	> 30	<50.0
CC(C)Nc1ncc(-c2cc(N)cc(C(F)(F)F)c2)n(CC(=O)NCc2c(F)c(O)c(C(=N)N)c(F)c2F)c1=O [Example 65]	> 0.1	> 30	> 30	>50.0
CC(C)Nc1ncc(-c2cc(N)cc(C(F)(F)F)c2)n(CC(=O)NCc2ccc(C(=N)N)s2)c1=O [Example 67]	< 0.1	> 30	< 30	<50.0
CC(C)Nc1ncc(-c2cc(N)cc(N)c2)n(CC(=O)NCc2ccc(C(=N)N)s2)c1=O [Example 68]	< 0.1	> 30	< 30	<50.0
CC[C@@H](C)NC(=O)c1cc(N)cc(-c2cnc(NC(C)C)c(=O)n2CC(=O)NCc2ccc(C(=N)N)cc2)c1 [Example 72]	< 0.1	< 30	> 30	<50.0
COC(=O)c1cc(N)cc(-c2cnc(NC(C)C)c(=O)n2CC(=O)NCc2ccc(C(=N)N)c(O)c2)c1 [Example 77]	> 0.1	> 30	> 30	<50.0
CC(C)Nc1ncc(-c2cc(N)cc(NC(=O)OC(C)(C)C)c2)n(CC(=O)NCc2ccc(C(=N)N)c(O)c2)c1=O [Example 78]	> 0.1	> 30	> 30	<50.0
CC(C)Nc1ncc(-c2cc(N)cc(N)c2)n(CC(=O)NCc2ccc(C(=N)N)c(O)c2)c1=O [Example 79]	> 0.1	> 30	> 30	<50.0
CC(C)Nc1ncc(-c2cc(N)cc(C(=O)N[C@H](C)C3CCCCC3)c2)n(CC(=O)NCc2ccc(C(=N)N)cc2)c1=O.O=C(O)C(F)(F)F [Example 81]	< 0.1	< 30	> 30	<50.0
CC(C)Nc1ncc(-c2cc(N)cc(C(=O)N[C@@H](C)C3CCCCC3)c2)n(CC(=O)NCc2ccc(C(=N)N)cc2)c1=O.O=C(O)C(F)(F)F [Example 82]	< 0.1	< 30	> 30	<50.0
CCC(C)[C@H](NC(=O)c1cc(N)cc(-c2cnc(NC(C)C)c(=O)n2CC(=O)NCc2ccc(C(=N)N)cc2)c1)C(=O)O (some centres unmarked) [Example 85]	< 0.1	> 30	> 30	<50.0
CC(C)Nc1ncc(-c2cc(N)cc(NS(=O)(=O)c3ccc(OC(F)(F)F)cc3)c2)n(CC(=O)NCc2ccc(C(=N)N)cc2)c1=O [Example 88]	> 0.1	> 30	> 30	<50.0
COc1ccc(S(=O)(=O)Nc2cc(N)cc(-c3cnc(NC(C)C)c(=O)n3CC(=O)NCc3ccc(C(=N)N)cc3)c2)cc1 [Example 92]	< 0.1	> 30	> 30	<50.0

More lines, main results first:

IC50 [1] [µM]	IC50 (Human thrombin) [µM]	IC50 (Human factor Xa) [µM]	SMILES	PT (Prothrombin time) 2xPT [2] [µM]
< 0.1	< 30	> 30	CC(C)Nc1ncc(-c2cc(N)cc(C(=O)NCCCc3ccccc3)c2)n(CC(=O)NCc2ccc(C(=N)N)cc2)c1=O [Example 62]	<50.0
< 0.1	> 30	> 30	CCNC(=O)c1cc(N)cc(-c2cnc(NC(C)C)c(=O)n2CC(=O)NCc2ccc(C(=N)N)cc2)c1 [Example 63]	<50.0
< 0.1	> 30	> 30	CC(C)Nc1ncc(-c2cc(N)cc(S(=O)(=O)O)c2)n(CC(=O)NCc2ccc(C(=N)N)cc2)c1=O [Example 66, 3-Amino-5-[1-[2-({4-[amino(imino)methyl]benzyl}amino)-2-oxoethyl]-5-(isopropylamino)-6-oxo-1,6-dihydropyrazin-2-yl]benzenesulfonic Acid]	<50.0
< 0.1	> 30	> 30	CC(C)CSc1cc(N)cc(-c2cnc(NC(C)C)c(=O)n2CC(=O)NCc2ccc(C(=N)N)cc2)c1 [Example 70, N-{4-[amino(imino)methyl]benzyl}-2-[6-[3-amino-5-(isobutylthio)phenyl]-3-(isopropylamino)-2-oxopyrazin-1 (2H)-yl]acetamide]	<50.0
< 0.1	> 30	> 30	CC(C)C[S+]([O-])c1cc(N)cc(-c2cnc(NC(C)C)c(=O)n2CC(=O)NCc2ccc(C(=N)N)cc2)c1 (centres unmarked) [Example 73, N-{4-[amino(imino)methyl]benzyl}-2-[6-[3-amino-5-(isobutylsulfinyl)phenyl]-3-(isopropylamino)-2-oxopyrazin-1 (2H)-yl]acetamide]	<50.0
< 0.1	> 30	> 30	CC(C)CS(=O)(=O)c1cc(N)cc(-c2cnc(NC(C)C)c(=O)n2CC(=O)NCc2ccc(C(=N)N)cc2)c1 [Example 74, N-{4-[amino(imino)methyl]benzyl}-2-[6-[3-amino-5-(isobutylsulfonyl)phenyl]-3-(isopropylamino)-2-oxopyrazin-1 (2H)-yl]acetamide]	<50.0
< 0.1	> 30	> 30	CC(C)Nc1ncc(-c2cc(N)cc(CCCc3ccccc3)c2)n(CC(=O)NCc2ccc(C(=N)N)cc2)c1=O [Example 76, N-{4-[amino(imino)methyl]benzyl}-2-[6-[3-amino-5-(3-phenylpropyl)phenyl]-3-(isopropylamino)-2-oxopyrazin-1 (2H)-yl]acetamide]	<50.0
< 0.1	> 30	> 30	CC(C)Nc1ncc(-c2cc(N)cc(/C=C/Cc3ccccc3)c2)n(CC(=O)NCc2ccc(C(=N)N)cc2)c1=O [Example 80, N-{4-[amino(imino)methyl]benzyl}-2-[6-{3-amino-5-[(1E)-3-phenylprop-1-enyl]phenyl}-3-(isopropylamino)-2-oxopyrazin-1 (2H)-yl]acetamide]	>50.0
< 0.1	> 30	> 30	CC(C)Nc1ncc(-c2cc(N)cc(C(=O)N[C@@H](C(=O)O)c3ccccc3)c2)n(CC(=O)NCc2ccc(C(=N)N)cc2)c1=O [Example 83]	<50.0
< 0.1	> 30	> 30	CC(C)Nc1ncc(-c2cc(N)cc(C(=O)N[C@H](C(=O)O)c3ccccc3)c2)n(CC(=O)NCc2ccc(C(=N)N)cc2)c1=O [Example 84]	<50.0
< 0.1	< 30	> 30	COC(=O)[C@H](NC(=O)c1cc(N)cc(-c2cnc(NC(C)C)c(=O)n2CC(=O)NCc2ccc(C(=N)N)cc2)c1)c1ccccc1 [Example 86]	<50.0
< 0.1	< 30	> 30	COC(=O)[C@@H](NC(=O)c1cc(N)cc(-c2cnc(NC(C)C)c(=O)n2CC(=O)NCc2ccc(C(=N)N)cc2)c1)c1ccccc1 [Example 87]	<50.0
< 0.1	> 30	> 30	CC(C)Nc1ncc(-c2cc(N)cc(NS(=O)(=O)c3ccccc3C(F)(F)F)c2)n(CC(=O)NCc2ccc(C(=N)N)cc2)c1=O [Example 89]	<50.0
< 0.1	> 30	> 30	CC(C)Nc1ncc(-c2cc(N)cc(NS(=O)(=O)c3ccc4ccccc4c3)c2)n(CC(=O)NCc2ccc(C(=N)N)cc2)c1=O [Example 90]	<50.0
< 0.1	> 30	> 30	CC(C)Nc1ncc(-c2cc(N)cc(NS(=O)(=O)c3cccs3)c2)n(CC(=O)NCc2ccc(C(=N)N)cc2)c1=O [Example 91]	<50.0
< 0.1	> 30	> 30	CC(C)Nc1ncc(-c2cc(N)cc(NS(=O)(=O)c3ccc(F)cc3)c2)n(CC(=O)NCc2ccc(C(=N)N)cc2)c1=O [Example 93]	<50.0
